Measurements: patent US6706663B2, “Herbicidal 3-heterocyclic substituted benzisothiazole and benzisoxazole compounds” (Wyeth, priority 2000, dated 2004)

Experiments:
[1] = test system: SAGPY (Sagittaria pygmaea); assay: Flooded paddy, postemergence weed control; assay type: in vivo, L.; settings: postemergence weeds, rated 3-4 weeks after treatment
Summary of the method: (§1)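 Weeds 3–5 cm tall and rice at 1.5–2.5 leaf stage in containers flooded 1.5–3 cm deep; compounds in 50/50 v/v aqueous/acetone injected into flood water at about 0.0320–0.2500 kg/ha. Greenhouse-held; visual 0–9 rating versus untreated control after three to four weeks.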

[2] = test system: ORYSAT (Rice, Tebonnet); assay: Flooded paddy, post-transplant and postemergence rice tolerance; assay type: in vivo, Oryza sativa, (L.) Tebonnet; settings: post-transplant rice, rated 3-4 weeks after treatment
Summary of the method: as §1

[3] = test system: TRZAWR (Wheat, Winter, cv Riband); assay: Postemergence herbicidal evaluation; assay type: in vivo, Triticum aestivum; settings: for TRZAWR herbicidal rating: postemergence
Summary of the method: (§2)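 Seedlings grown about two weeks in flats, sprayed, then kept under standard greenhouse care. Rated visually 4–5 weeks after treatment on a 0–9 scale (stand, vigour, malformation, size, chlorosis, overall appearance) relative to untreated control; repeat tests averaged.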

[4] = test system: SETVI (Setaria viridis); assay: Postemergence herbicidal evaluation; assay type: in vivo, (L.) Beau; settings: for SETVI herbicidal rating: postemergence
Summary of the method: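 First, seedlings are raised in flats for about two weeks. Next, compound dispersed in 50/50 acetone/water with 0.5% TWEEN 20 is sprayed at 40 psi to deliver about 0.0040–1.000 kg/ha. Plants are then maintained in the greenhouse and rated 0-9 after four to five weeks.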

[5] = test system: GALAP (Galium aparine); assay: Postemergence herbicidal evaluation; assay type: in vivo; settings: for GALAP herbicidal rating: postemergence
Summary of the method: as §2

[6] = test system: GALAP (Galium aparine); assay: Preemergence herbicidal evaluation; assay type: in vivo; settings: rated 4-5 weeks after treatment
Summary of the method: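 Seeds planted in potting soil cups and sprayed preemergence with aqueous acetone compound solution. Greenhouse-grown; rated 4–5 weeks after treatment on a 0-9 visual scale (stand, vigor, malformation, size, chlorosis, appearance) versus control.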

[7] = test system: ZEAMX (Corn, Field); assay: Postemergence herbicidal evaluation; assay type: in vivo, Zea mays, L.; settings: for ZEAMX herbicidal rating: postemergence
Summary of the method: as §2

[8] = test system: CYPSE (Cyperus serotinus); assay: Flooded paddy, postemergence weed control; assay type: in vivo, Rottb.; settings: postemergence weeds, rated 3-4 weeks after treatment
Summary of the method: as §1

[9] = test system: ECHCG (Echinochloa crus-galli); assay: Postemergence herbicidal evaluation; assay type: in vivo, (L.) Beau; settings: for ECHCG herbicidal rating: postemergence
Summary of the method: as §2

[10] = test system: ECHORC (Echinochloa oryzoides); assay: Flooded paddy, preemergence weed control; assay type: in vivo, Echinochloa oryzoides (Ard.) Fritsch.; settings: rated 3-4 weeks after treatment, 0-9 rating scale
Summary of the method: (§3)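 Seeds or propagules were planted in the top 0.5 cm of silt loam soil and kept flooded 1.5–3 cm above the surface throughout, then held in the greenhouse. Injury was rated visually on a 0–9 scale against untreated controls, covering stand, vigor, malformation, size and chlorosis.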

[11] = test system: SAGPY (Sagittaria pygmaea); assay: Flooded paddy, preemergence weed control; assay type: in vivo, L.; settings: rated 3-4 weeks after treatment, 0-9 rating scale
Summary of the method: as §3

[12] = test system: ORYSAT (Rice, Tebonnet); assay: Preemergence herbicidal evaluation; assay type: in vivo, Oryza sativa, (L.) Tebonnet; settings: rated 4-5 weeks after treatment
[13] = test system: CYPSE (Cyperus serotinus); assay: Flooded paddy, preemergence weed control; assay type: in vivo, Rottb.; settings: rated 3-4 weeks after treatment, 0-9 rating scale
Summary of the method: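 Seeds or propagules were planted 0.5 cm deep in silt loam and flooded to 1.5–3 cm. Compounds in 50/50 v/v aqueous/acetone were pipetted into the flood water at about 0.0080 to 0.1250 kg/ha. After 3–4 weeks in the greenhouse, effect was rated visually on a 0–9 scale versus untreated control.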

[14] = test system: ECHORC (Echinochloa oryzoides); assay: Flooded paddy, postemergence weed control; assay type: in vivo, Echinochloa oryzoides (Ard.) Fritsch.; settings: postemergence weeds, rated 3-4 weeks after treatment
Summary of the method: as §1

[15] = test system: MOOVA (Monochoria vaginalis); assay: Flooded paddy, postemergence weed control; assay type: in vivo, Presl.; settings: postemergence weeds, rated 3-4 weeks after treatment
Summary of the method: as §1

[16] = rate 0.0320 kg/ha, listed as 82
[17] = rate 0.1250 kg/ha, listed as 82

1-methyl-3-[3-(1,3-oxathian-2-yl)-1,2-benzisothiazol-5-yl]-6-(trifluoromethyl)uracil S′,S′-dioxide [Compound 35]
5.0: herbicide rating (0-9) ORYSAT (rice tolerance) ([2]; 0.2500 kg/ha into flood water) | herbicidal rating, CYPSE ([13]; rate 0.1250 kg/ha)
7.5: Postemergence herbicidal rating, TRZAWR ([3]; rate 0.0620 kg/ha) | Postemergence herbicidal rating, ZEAMX ([7]; rate 0.0320 kg/ha) | Postemergence herbicidal rating, ZEAMX ([7]; rate 0.0620 kg/ha) | herbicidal rating, ECHORC ([10]; rate 0.1250 kg/ha)
7.0: Postemergence herbicidal rating, TRZAWR ([3]; rate 0.0320 kg/ha) | Preemergence herbicidal rating GALAP ([6]; Rate 0.0620 kg/ha) | herbicidal rating, ECHORC ([10]; rate 0.0080 kg/ha, listed as 82)
4.0: herbicide rating (0-9) ORYSAT (rice tolerance) ([2]; 0.1250 kg/ha into flood water) | SETVI herbicidal rating ([4]; rate 0.0620 kg/ha) | GALAP herbicidal rating ([5]; rate 0.0620 kg/ha) | Postemergence herbicidal rating, GALAP ([5]; rate 0.0620 kg/ha) | Postemergence herbicidal rating, ECHCG ([9]; rate 0.0620 kg/ha) | herbicide rating (0-9) ECHORC ([14]; 0.0620 kg/ha into flood water) | herbicide rating (0-9) ECHORC ([14]; 0.1250 kg/ha into flood water)
5.5: herbicidal rating, ECHORC ([10]; rate 0.0320 kg/ha) | ORYSAT preemergence herbicidal rating ([12]; Rate 0.0620 kg/ha)
0.0: herbicide rating (0-9) SAGPY ([1]; 0.0620 kg/ha into flood water) | herbicide rating (0-9) SAGPY ([1]; 0.1250 kg/ha into flood water) | herbicide rating (0-9) SAGPY ([1]; 0.2500 kg/ha into flood water) | herbicide rating (0-9) CYPSE ([8]; 0.0620 kg/ha into flood water) | herbicide rating (0-9) CYPSE ([8]; 0.1250 kg/ha into flood water) | herbicidal rating, ECHORC ([10]; rate 0.0080 kg/ha) | herbicidal rating, SAGPY ([11]; rate 0.0080 kg/ha) | Preemergence herbicidal rating ORYSAT ([12]; Rate 0.0620 kg/ha) | Preemergence herbicidal rating ORYSAT ([12]; Rate 0.1250 kg/ha) | Preemergence herbicidal rating ORYSAT ([12]; Rate 0.2500 kg/ha)
1.5: TRZAWR herbicidal rating ([3]; rate 0.0320 kg/ha) | TRZAWR herbicidal rating ([3]; rate 0.0620 kg/ha)
3.0: herbicide rating (0-9) ORYSAT (rice tolerance) ([2]; 0.0620 kg/ha into flood water) | SETVI herbicidal rating ([4]; rate 0.0320 kg/ha) | Postemergence herbicidal rating, GALAP ([5]; rate 0.0320 kg/ha) | ZEAMX herbicidal rating ([7]; rate 0.0320 kg/ha) | ZEAMX herbicidal rating ([7]; rate 0.0620 kg/ha) | ECHCG herbicidal rating ([9]; rate 0.0620 kg/ha) | Postemergence herbicidal rating, ECHCG ([9]; rate 0.0320 kg/ha)
9.0: Postemergence herbicidal rating, SETVI ([4]; rate 0.0320 kg/ha) | Postemergence herbicidal rating, SETVI ([4]; rate 0.0620 kg/ha) | GALAP preemergence herbicidal rating ([6]; Rate 0.0620 kg/ha) | GALAP preemergence herbicidal rating ([6]; Rate 0.1250 kg/ha) | Preemergence herbicidal rating GALAP ([6]; Rate 0.1250 kg/ha) | GALAP preemergence herbicidal rating ([6]; Rate 0.2500 kg/ha) | Preemergence herbicidal rating GALAP ([6]; Rate 0.2500 kg/ha) | herbicide rating (0-9) CYPSE ([8]; 0.2500 kg/ha into flood water) | herbicidal rating, ECHORC [10, 16] | herbicidal rating, ECHORC [10, 17] | ORYSAT preemergence herbicidal rating ([12]; Rate 0.1250 kg/ha) | ORYSAT preemergence herbicidal rating ([12]; Rate 0.2500 kg/ha) | herbicidal rating, CYPSE [13, 16] | herbicidal rating, CYPSE [13, 17] | herbicide rating (0-9) ECHORC ([14]; 0.2500 kg/ha into flood water) | herbicide rating (0-9) MOOVA ([15]; 0.0620 kg/ha into flood water) | herbicide rating (0-9) MOOVA ([15]; 0.1250 kg/ha into flood water) | herbicide rating (0-9) MOOVA ([15]; 0.2500 kg/ha into flood water)
2.0: GALAP herbicidal rating ([5]; rate 0.0320 kg/ha) | ECHCG herbicidal rating ([9]; rate 0.0320 kg/ha) | herbicidal rating, CYPSE ([13]; rate 0.0320 kg/ha)

Cc1cscc1-c1nsc2ccc(-n3c(=O)cc(C(F)(F)F)n(C)c3=O)cc12 [Compound 26, 1-methyl-3-[3-(4-methyl-3-thienyl)-1,2-benzisothiazol-5-yl]-6-(trifluoromethyl)uracil]
7.0: Postemergence herbicidal rating, SETVI ([4]; rate 0.0320 kg/ha) | GALAP preemergence herbicidal rating ([6]; Rate 0.0620 kg/ha) | GALAP preemergence herbicidal rating ([6]; Rate 0.1250 kg/ha) | herbicide rating (0-9) CYPSE ([8]; 0.0320 kg/ha into flood water) | herbicide rating (0-9) CYPSE ([8]; 0.0620 kg/ha into flood water) | herbicide rating (0-9) CYPSE ([8]; 0.1250 kg/ha into flood water) | herbicide rating (0-9) ECHORC ([14]; 0.0320 kg/ha into flood water)
3.5: Postemergence herbicidal rating, TRZAWR ([3]; rate 0.0320 kg/ha)
2.0: ORYSAT preemergence herbicidal rating ([12]; Rate 0.0620 kg/ha)
1.5: herbicidal rating, SAGPY ([11]; rate 0.0080 kg/ha)
4.0: herbicide rating (0-9) ORYSAT (rice tolerance) ([2]; 0.0320 kg/ha into flood water) | herbicide rating (0-9) MOOVA ([15]; 0.0320 kg/ha into flood water) | herbicide rating (0-9) MOOVA ([15]; 0.0620 kg/ha into flood water)
0.0: herbicide rating (0-9) SAGPY ([1]; 0.0320 kg/ha into flood water) | herbicide rating (0-9) SAGPY ([1]; 0.0620 kg/ha into flood water) | herbicide rating (0-9) SAGPY ([1]; 0.1250 kg/ha into flood water) | herbicidal rating, CYPSE ([13]; rate 0.0320 kg/ha)
5.3: herbicidal rating, SAGPY ([11]; rate 0.0320 kg/ha)
4.5: Postemergence herbicidal rating, TRZAWR ([3]; rate 0.0620 kg/ha)
9.0: Postemergence herbicidal rating, SETVI ([4]; rate 0.0620 kg/ha) | GALAP preemergence herbicidal rating ([6]; Rate 0.2500 kg/ha) | herbicidal rating, ECHORC ([10]; rate 0.0320 kg/ha) | herbicidal rating, ECHORC ([10]; rate 0.1250 kg/ha) | herbicide rating (0-9) ECHORC ([14]; 0.0620 kg/ha into flood water) | herbicide rating (0-9) ECHORC ([14]; 0.1250 kg/ha into flood water)
8.0: herbicidal rating, ECHORC ([10]; rate 0.0080 kg/ha) | herbicidal rating, SAGPY ([11]; rate 0.1250 kg/ha)
5.5: Postemergence herbicidal rating, ZEAMX ([7]; rate 0.0620 kg/ha) | ORYSAT preemergence herbicidal rating ([12]; Rate 0.2500 kg/ha)
6.0: herbicide rating (0-9) ORYSAT (rice tolerance) ([2]; 0.1250 kg/ha into flood water) | Postemergence herbicidal rating, GALAP ([5]; rate 0.0620 kg/ha) | herbicide rating (0-9) MOOVA ([15]; 0.1250 kg/ha into flood water)
3.0: Postemergence herbicidal rating, ECHCG ([9]; rate 0.0320 kg/ha) | Postemergence herbicidal rating, ECHCG ([9]; rate 0.0620 kg/ha) | ORYSAT preemergence herbicidal rating ([12]; Rate 0.1250 kg/ha) | herbicidal rating, CYPSE ([13]; rate 0.1250 kg/ha)
5.0: herbicide rating (0-9) ORYSAT (rice tolerance) ([2]; 0.0620 kg/ha into flood water) | Postemergence herbicidal rating, GALAP ([5]; rate 0.0320 kg/ha) | Postemergence herbicidal rating, ZEAMX ([7]; rate 0.0320 kg/ha)
